In paper PMC10931776, “Modes of Interactions with DNA/HSA Biomolecules and Comparative Cytotoxic Studies of Newly Synthesized Mononuclear Zinc(II) and Heteronuclear Platinum(II)/Zinc(II) Complexes toward Colorectal Cancer Cells” (International Journal of Molecular Sciences, 2024):

How the values were obtained:
CT26 cells [1] = experiment: Annexin V FITC / Propidium Iodide apoptosis flow cytometry; type: cell-based, mouse; conditions: CT26, 24 h treatment
Experimental: The capacity of the C1 complex to induce apoptotic death in cancer cells was assessed using flow cytometric analysis. This analysis involved treating cells with the C1 complex and subsequently staining them with Annexin V FITC and Propidium Iodide. […] In a similar vein, in a related context, NCI-H460 cancer cells, which are a line of human large-cell lung carcinoma cells, were subjected to treatment with binuclear platinum(II) complexes. These complexes feature 4′-substituted-2,2′:6′,2″-terpyridine ligands and were administered for a duration of 24 h. Following this treatment, there was a significant increase in the proportion of apoptotic cells, correlating strongly with exposure to these specific ligands.
The evaluation of apoptosis in cells subjected to treatment was conducted employing the Annexin V and Propidium Iodide double staining assay in accordance with the methodology outlined in prior studies. This approach enabled the determination of the percentage of apoptotic cells. In further experiments, cells were fixed and permeabilized using a permeabilization buffer provided by BD Bioscience, Heidelberg, Germany. […] The analysis of these treated cells was carried out using a FACS Calibur flow cytometer (BD Biosciences, San Jose, CA, USA) and the resulting data were meticulously analyzed with FlowJo software (v10.8.2). […]

CT26 cells [2] = experiment: Cell cycle analysis by flow cytometry; type: cell-based, mouse; conditions: CT26, 24 h treatment, vs untreated
Experimental: The study of cell cycle arrest in CT26 carcinoma cells treated with the potent compound C1 was conducted to elucidate the potential cellular mechanisms underlying its anticancer effect. For this purpose, CT26 cells were subjected to 24 h treatment with the C1 complex. […] This arrest is likely attributable to molecular alterations within the cancer cells post-treatment. […] This reduction in the S phase, where DNA replication occurs, further indicates the efficacy of the C1 complex in hindering cell cycle progression. […] The induction of cell cycle arrest by the C1 compound potentially curtails the growth and dissemination of carcinoma cells, underscoring its efficacy as a promising anticancer agent.
Our research progressed to explore the potential effects of the newly synthesized C1 complex on the cell cycle dynamics of CT26 tumor cells. […] Each sample tube was then treated with a specific antibody targeting Ki67 (eBioscience, San Diego, CA, USA)/1 μL of Vybrant® DyeCycleTM Ruby stain (Thermo Fisher Scientific Inc., Waltham, MA, USAand subsequently analyzed using a FACS Calibur flow cytometer (BD Biosciences, San Jose, CA, USA). A minimum of 15,000 events per sample were examined. Data analysis was conducted using the FlowJo vX.0.7 software, allowing for a detailed assessment of the cell cycle phases and any impact induced by the C1 complex.

Substance: [ZnCl2(terpy^t^Bu)] [C1]
- Induction of apoptotic cell death (CT26 cells [1]; Annexin V FITC/PI): entered both early and late stages of apoptosis
- Quadrant number upper left of PI / Annexin V plot (necrotic, AnnV−PI+) (CT26 cells [1]; representative FACS plot, untreated 1.55): underwent necrosis
- Cell cycle distribution, G0/G1 phase (CT26 cells [2]): G0/G1 phase arrest
- Cell cycle distribution, synthesis (S) phase (CT26 cells [2]): notable decrease
